# According to patent publication US20230293526A1, “METHOD FOR TREATING CANCER WITH A REVERSE TRANSCRIPTASE INHIBITOR” (PrimeFour Therapeutics, Inc., priority 2020, published 2023):
# System: cancer cell lines
# Assay: Cancer cell proliferation activity of representative nucleosides, CellTiterGlo 72 h (Example 7, Tables 8 and 9)
# Type: cell-based
# Settings: 72 h
# Description: Dose response relationships on cell proliferation was assessed for representative nucleosides on cancer cell lines. Briefly, compound treatment of cells started one day after seeding with a final DMSO concentration of 0.1%, and was performed by nanodrop-dispensing using a Tecan Dispenser. 0.1% DMSO (solvent) and Staurosporine (10 μM) served as high control (100% viability) and low control (0% viability), respectively. Cells were cultured in the appropriate media. For the assays, cells were seeded in white cell culture-treated flat and clear bottom multiwell plates and incubated at 37° C. overnight before compound was added. After incubation for 72 h at 37° C. at 5% or 10% CO2 dependent on the medium, cell plates were equilibrated to room temperature for one hour, CellTiterGlo reagent (Promega) was added and luminescence was measured approximately an hour later using a luminometer.
# Raw data were converted into percent cell viability relative to the high and low control, which were set to 100% and 0%, respectively.
compound,measurement,setting,value
C[C@]1(CO)O[C@@H](n2ccc(N)nc2=O)C[C@@H]1O [compound 30],IC50,"72 h, 5637, bladder",180 nM
same,IC50,"CLS439, bladder",2650 nM
same,IC50,"HS729, muscle",370 nM
same,IC50,"J82, bladder",640 nM
same,IC50,"JAR, placenta",5240 nM
same,IC50,"MT3, breast",50 nM
same,IC50,"PC3, prostate",150 nM
same,IC50,"RD, muscle",790 nM
same,IC50,"T24, bladder",80 nM
same,IC50,"Homo sapiens, 22Rv1, 72 h, 22RV1, prostate",1350 nM
same,IC50,"Homo sapiens, 786-0, 72 h, 786O, kidney",380 nM
same,IC50,"Homo sapiens, A204, 72 h, A204, muscle",20 nM
same,IC50,"Homo sapiens, A549, 72 h, A549, lung",320 nM
same,IC50,"Homo sapiens, A673, 72 h, A673, bone",500 nM
same,IC50,"Homo sapiens, A2780, 72 h, A2780, ovary",250 nM
same,IC50,"Homo sapiens, A-375, 72 h, A375, skin",330 nM
same,IC50,"Homo sapiens, A-431, 72 h, A431, skin",280 nM
same,IC50,"Homo sapiens, ACHN, kidney",340 nM
same,IC50,"Homo sapiens, ASPC1, 72 h, ASPC1, pancreas",130 nM
same,IC50,"Homo sapiens, BT-20, 72 h, BT20, breast",670 nM
same,IC50,"Homo sapiens, BXPC-3, 72 h, BXPC3, pancreas",130 nM
same,IC50,"Homo sapiens, C-33-A, C33A, endometrial",190 nM
same,IC50,"Homo sapiens, CAKI-1, 72 h, CAKI1, kidney",70 nM
same,IC50,"Homo sapiens, COLO 205, 72 h, COLO205, colon",160 nM
same,IC50,"Homo sapiens, COLO-678, 72 h, COLO678, colon",1710 nM
same,IC50,"Homo sapiens, Ca-Ski, CASKI, endometrial",1280 nM
same,IC50,"Homo sapiens, Caco-2, 72 h, CACO2, colon",2960 nM
same,IC50,"Homo sapiens, Calu-6, 72 h, CALU6, lung",500 nM
same,IC50,"Homo sapiens, DLD-1, 72 h, DLD1, colon",580 nM
same,IC50,"Homo sapiens, DU-145, 72 h, DU145, prostate",280 nM
same,IC50,"Homo sapiens, EFO-21, 72 h, EFO21, ovary",450 nM
same,IC50,"Homo sapiens, EJ-28, 72 h, EJ28, bladder",1020 nM
same,IC50,"Homo sapiens, Granta-519, 72 h, GRANTA-519, hematological",80 nM
same,IC50,"Homo sapiens, HCT-15, 72 h, HCT15, colon",540 nM
same,IC50,"Homo sapiens, HCT-116, 72 h, HCT116, colon",310 nM
same,IC50,"Homo sapiens, HEK293, 72 h, HEK293, kidney",10900 nM
same,IC50,"Homo sapiens, HL-60, 72 h, HL-60, hematological",360 nM
same,IC50,"Homo sapiens, HT-29, 72 h, HT29, colon",410 nM
same,IC50,"Homo sapiens, HT-1080, 72 h, HT1080, connective tissue",270 nM
same,IC50,"Homo sapiens, HeLa, endometrial",330 nM
same,IC50,"Homo sapiens, HepG2, 72 h, HEPG2, liver",1300 nM
same,IC50,"Homo sapiens, Hs-578T, HS578T, breast",920 nM
same,IC50,"Homo sapiens, IGROV-1, 72 h, IGROV1, ovary",520 nM
same,IC50,"Homo sapiens, IMR-90, 72 h, IMR90, lung",2120 nM
same,IC50,"Homo sapiens, JEG-3, 72 h, JEG3, placenta",1250 nM
same,IC50,"Homo sapiens, JIMT-1, 72 h, JIMT1, breast",80 nM
same,IC50,"Homo sapiens, K562, 72 h, K-562, hematological",1440 nM
same,IC50,"Homo sapiens, Kasumi 1, 72 h, KASUMI-1, hematological",80 nM
same,IC50,"Homo sapiens, L-363, 72 h, L-363, hematological",> 50000 nM
same,IC50,"Homo sapiens, LoVo, colon",340 nM
same,IC50,"Homo sapiens, MCF7, 72 h, MCF7, breast",1960 nM
same,IC50,"Homo sapiens, MDA-MB-231, 72 h, MDAMB231, breast",50 nM
same,IC50,"Homo sapiens, MDA-MB-435, 72 h, MDAMB435, skin",820 nM
same,IC50,"Homo sapiens, MDA-MB-436, 72 h, MDAMB436, breast",310 nM
same,IC50,"Homo sapiens, MDA-MB-468, 72 h, MDAMB468, breast",290 nM
same,IC50,"Homo sapiens, MG-63, 72 h, MG63, bone",380 nM
same,IC50,"Homo sapiens, MHH-ES-1, 72 h, MHHES1, bone",720 nM
same,IC50,"Homo sapiens, MIA PaCa-2, 72 h, MIAPACA2, pancreas",540 nM
same,IC50,"Homo sapiens, MINO, hematological",80 nM
same,IC50,"Homo sapiens, MV4-11, 72 h, MV4-11, hematological",570 nM
same,IC50,"Homo sapiens, NCI-H23, 72 h, NCI-H23, lung",330 nM
same,IC50,"Homo sapiens, NCI-H82, 72 h, NCIH82, lung",2530 nM
same,IC50,"Homo sapiens, NCI-H292, 72 h, NCIH292, lung",280 nM
same,IC50,"Homo sapiens, NCI-H460, 72 h, NCIH460, ung",420 nM
same,IC50,"Homo sapiens, OVCAR-3, 72 h, OVCAR3, ovary",380 nM
same,IC50,"Homo sapiens, OVCAR-4, 72 h, OVCAR4, ovary",1050 nM
same,IC50,"Homo sapiens, PANC-1, 72 h, PANC1, pancreas",1150 nM
same,IC50,"Homo sapiens, PLC-PRF-5, 72 h, PLCPRF5, liver",2160 nM
same,IC50,"Homo sapiens, Panc1005, 72 h, PANC1005, pancreas",430 nM
same,IC50,"Homo sapiens, Ramos, hematological",110 nM
same,IC50,"Homo sapiens, SAOS-2, 72 h, SAOS2, bone",80 nM
same,IC50,"Homo sapiens, SF-268, 72 h, SF268, brain",150 nM
same,IC50,"Homo sapiens, SF-295, 72 h, SF295, brain",730 nM
same,IC50,"Homo sapiens, SK-BR-3, 72 h, SKBR3, breast",190 nM
same,IC50,"Homo sapiens, SK-HEP1, 72 h, SKHEP1, liver",120 nM
same,IC50,"Homo sapiens, SK-LMS-1, 72 h, SKLMS1, uterus",1350 nM
same,IC50,"Homo sapiens, SK-MEL-5, 72 h, SKMEL5, skin",3650 nM
same,IC50,"Homo sapiens, SK-MEL-28, 72 h, SKMEL28, skin",1180 nM
same,IC50,"Homo sapiens, SK-N-AS, SKNAS, brain",1410 nM
same,IC50,"Homo sapiens, SK-N-SH, SKNSH, brain",> 50000 nM
same,IC50,"Homo sapiens, SK-OV-3, 72 h, SKOV3, ovary",280 nM
same,IC50,"Homo sapiens, SNB-75, 72 h, SNB75, brain",830 nM
same,IC50,"Homo sapiens, SU-DHL10, 72 h, SU-DHL-10, hematological",360 nM
same,IC50,"Homo sapiens, SU-DHL-6, 72 h, SU-DHL-6, hematological",330 nM
same,IC50,"Homo sapiens, SW-620, 72 h, SW620, colon",650 nM
same,IC50,"Homo sapiens, TE-671, 72 h, TE671, muscle",440 nM
same,IC50,"Homo sapiens, THP-1, 72 h, THP-1, hematological",1230 nM
same,IC50,"Homo sapiens, U2OS, bone",670 nM
same,IC50,"Homo sapiens, U-87 MG, U87MG, brain",330 nM
same,IC50,"Homo sapiens, UMUC3, 72 h, UMUC3, bladder",560 nM
same,IC50,"Homo sapiens, UO-31, 72 h, UO31, kidney",150 nM
same,IC50,"Homo sapiens, WSU-NHL, hematological",210 nM
same,IC50,"NCI-H358M, NCIH358M, lung",50 nM
same,IC50,"PBMC, hematological",1030 nM
same,IC50,"RD-ES, RDES, bone",2200 nM
